# Test system: 931267-113-T-J1-PDC KRAS spheroid with HUVEC/MSC, viability
# Experiment: Anticancer human tumor 931267-113-T-J1-PDC patient-derived colon adenocarcinoma cell line growth inhibition [KRAS2]
# Settings: for IC50: curve of first compound; for viability, T/C: stronger effect = lower value
# Method in brief: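 Combination screen of spheroid viability in tumor-cell co-cultures with endothelial (HUVEC) and mesenchymal stem cell stroma. Each agent was tested in half-log dilutions, topping at clinical Cmax or at 10 microM without a known Cmax.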
# [1] = second compound 0.1 µM, first compound 0.01 µM
# [2] = second compound 0.1 µM, first compound 0.0316 µM
# [3] = second compound 0.1 µM, first compound 0.1 µM
# [4] = second compound 0.1 µM, first compound 0.316 µM
# [5] = second compound 0.1 µM, first compound 1 µM
# [6] = second compound 0.1 µM, first compound 3.16 µM
# [7] = second compound 0.316 µM, first compound 0.01 µM
# [8] = second compound 0.316 µM, first compound 0.0316 µM
# [9] = second compound 0.316 µM, first compound 0.1 µM
# [10] = second compound 0.316 µM, first compound 0.316 µM
# [11] = second compound 0.316 µM, first compound 1 µM
# [12] = second compound 0.316 µM, first compound 3.16 µM
# [13] = second compound 1 µM, first compound 0.01 µM
# [14] = second compound 1 µM, first compound 0.0316 µM
# [15] = second compound 1 µM, first compound 0.1 µM
# [16] = second compound 1 µM, first compound 0.316 µM
# [17] = second compound 1 µM, first compound 1 µM
# [18] = second compound 1 µM, first compound 3.16 µM
# [19] = second compound 3.16 µM, first compound 0.01 µM
# [20] = second compound 3.16 µM, first compound 0.0316 µM
# [21] = second compound 3.16 µM, first compound 0.1 µM
# [22] = second compound 3.16 µM, first compound 0.316 µM
# [23] = second compound 3.16 µM, first compound 1 µM
# [24] = second compound 3.16 µM, first compound 3.16 µM
# [25] = second compound 10 µM, first compound 0.0316 µM
# [26] = second compound 10 µM, first compound 0.1 µM
# 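Also: compound exposure lasted 7 days before the readout.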
# 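For viability, T/C in this document: 100% = DMSO vehicle control viability.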
smiles,measurement,setting,value
CC(=O)OC12COC1CC(O)C1(C)C(=O)C(O)C3=C(C)C(OC(=O)C(O)C(NC(=O)OC(C)(C)C)c4ccccc4)CC(O)(C(OC(=O)c4ccccc4)C21)C3(C)C (stereo not given) + C=CC(=O)N1CCN(c2nc(OCC3CCCN3C)nc3c2CCN(c2cccc4cccc(C)c24)C3)CC1CC#N,IC50,second compound 0.0316 µM,> 3160 nM
same,IC50,second compound 0.1 µM,> 3160 nM
same,IC50,second compound 0.316 µM,> 3160 nM
same,IC50,second compound 1 µM,1300 nM
same,IC50,second compound 3.16 µM,> 3160 nM
same,"viability, T/C","second compound 0.0316 µM, first compound 0.01 µM",87.4%
same,"viability, T/C","second compound 0.0316 µM, first compound 0.0316 µM",86.6%
same,"viability, T/C","second compound 0.0316 µM, first compound 0.1 µM",76.2%
same,"viability, T/C","second compound 0.0316 µM, first compound 0.316 µM",91.5%
same,"viability, T/C","second compound 0.0316 µM, first compound 1 µM",128%
same,"viability, T/C","second compound 0.0316 µM, first compound 3.16 µM",78.6%
same,"viability, T/C",[1],106%
same,"viability, T/C",[2],99.4%
same,"viability, T/C",[3],89.6%
same,"viability, T/C",[4],82.7%
same,"viability, T/C",[5],72.1%
same,"viability, T/C",[6],82.4%
same,"viability, T/C",[7],126%
same,"viability, T/C",[8],109%
same,"viability, T/C",[9],94.7%
same,"viability, T/C",[10],75.8%
same,"viability, T/C",[11],76.7%
same,"viability, T/C",[12],75.5%
same,"viability, T/C",[13],84.5%
same,"viability, T/C",[14],91.4%
same,"viability, T/C",[15],77%
same,"viability, T/C",[16],86%
same,"viability, T/C",[17],54.6%
same,"viability, T/C",[18],34.5%
same,"viability, T/C",[19],83.5%
same,"viability, T/C",[20],104%
same,"viability, T/C",[21],102%
same,"viability, T/C",[22],84.8%
same,"viability, T/C",[23],91.7%
same,"viability, T/C",[24],90.1%
CC1(C)CCC(CN2CCN(c3ccc(C(=O)NS(=O)(=O)c4ccc(NCC5CCOCC5)c([N+](=O)[O-])c4)c(Oc4cnc5[nH]ccc5c4)c3)CC2)=C(c2ccc(Cl)cc2)C1 + COc1cc2nc(C)nc(NC(C)c3cc(N)cc(C(F)(F)F)c3)c2cc1OC1CCOC1,IC50,second compound 0.1 µM,2100 nM
same,IC50,second compound 0.316 µM,1950 nM
same,IC50,second compound 1 µM,1820 nM
same,IC50,second compound 3.16 µM,1650 nM
same,IC50,second compound 10 µM,< 31.6 nM
same,"viability, T/C",[2],89%
same,"viability, T/C",[3],88.1%
same,"viability, T/C",[4],90.1%
same,"viability, T/C",[5],95.8%
same,"viability, T/C",[6],27.7%
same,"viability, T/C","second compound 0.1 µM, first compound 10 µM",8.52%
same,"viability, T/C",[8],86.2%
same,"viability, T/C",[9],90.3%
same,"viability, T/C",[10],84%
same,"viability, T/C",[11],83%
same,"viability, T/C",[12],26.3%
same,"viability, T/C","second compound 0.316 µM, first compound 10 µM",5.92%
same,"viability, T/C",[14],76.5%
same,"viability, T/C",[15],93.4%
same,"viability, T/C",[16],76.1%
same,"viability, T/C",[17],84.9%
same,"viability, T/C",[18],19.6%
same,"viability, T/C","second compound 1 µM, first compound 10 µM",2.71%
same,"viability, T/C",[20],61.9%
same,"viability, T/C",[21],86.5%
same,"viability, T/C",[22],60.2%
same,"viability, T/C",[23],69.8%
same,"viability, T/C",[24],24.3%
same,"viability, T/C","second compound 3.16 µM, first compound 10 µM",4.36%
same,"viability, T/C",[25],0.9%
same,"viability, T/C",[26],2.22%
same,"viability, T/C","second compound 10 µM, first compound 0.316 µM",0.8%
same,"viability, T/C","second compound 10 µM, first compound 1 µM",1.14%
same,"viability, T/C","second compound 10 µM, first compound 3.16 µM",2.02%
same,"viability, T/C","second compound 10 µM, first compound 10 µM",0.84%
Cn1ncnc1[C@H]1c2n[nH]c(=O)c3cc(F)cc(c23)N[C@@H]1c1ccc(F)cc1 + CC1OCC2(CCN(c3cnc(Sc4ccnc(N)c4Cl)c(N)n3)CC2)C1N,IC50,second compound 0.1 µM,> 100 nM
same,IC50,second compound 0.316 µM,> 100 nM
same,IC50,second compound 1 µM,> 100 nM
same,IC50,second compound 3.16 µM,> 100 nM
same,IC50,second compound 10 µM,> 100 nM
same,"viability, T/C","second compound 0.1 µM, first compound 0.000316 µM",93.9%
same,"viability, T/C","second compound 0.1 µM, first compound 0.001 µM",97.8%
same,"viability, T/C","second compound 0.1 µM, first compound 0.00316 µM",89.2%
same,"viability, T/C",[1],89.3%
same,"viability, T/C",[2],90.3%
same,"viability, T/C",[3],80.5%
same,"viability, T/C","second compound 0.316 µM, first compound 0.000316 µM",84%
same,"viability, T/C","second compound 0.316 µM, first compound 0.001 µM",91.4%
same,"viability, T/C","second compound 0.316 µM, first compound 0.00316 µM",91.2%
same,"viability, T/C",[7],78.9%
same,"viability, T/C",[8],60.8%
same,"viability, T/C",[9],68.4%
same,"viability, T/C","second compound 1 µM, first compound 0.000316 µM",85.8%
same,"viability, T/C","second compound 1 µM, first compound 0.001 µM",85.3%
same,"viability, T/C","second compound 1 µM, first compound 0.00316 µM",85.4%
same,"viability, T/C",[13],95.2%
same,"viability, T/C",[14],70.3%
same,"viability, T/C",[15],51.2%
same,"viability, T/C","second compound 3.16 µM, first compound 0.000316 µM",83.7%
same,"viability, T/C","second compound 3.16 µM, first compound 0.001 µM",93.5%
same,"viability, T/C","second compound 3.16 µM, first compound 0.00316 µM",84.7%
same,"viability, T/C",[19],80.6%
same,"viability, T/C",[20],91.4%
same,"viability, T/C",[21],69.7%
same,"viability, T/C","second compound 10 µM, first compound 0.000316 µM",77.6%
same,"viability, T/C","second compound 10 µM, first compound 0.001 µM",73.5%
same,"viability, T/C","second compound 10 µM, first compound 0.00316 µM",85.3%
same,"viability, T/C","second compound 10 µM, first compound 0.01 µM",77.8%
same,"viability, T/C",[25],71%
same,"viability, T/C",[26],51%

# Source: PubChem BioAssay AID1963863 (Molecular Pharmacology Branch, DTP, NCI, 2024)
